Results from patent US9133224B2, “Macrocyclic kinase inhibitors” (OSI Pharmaceuticals, LLC, priority 2010, dated 2015).
Read-outs that look alike come from different tables or passages of the source.

Assays:
[1] = 22-membered ring
[2] = target: T1, GST-tagged full-length FAK enzyme (PTK2) (Homo sapiens, UniProt Q05397); assay: Biochemical Omnia Assay (FAK)
T1 construct: GST-tagged full-length FAK enzyme (PTK2, Invitrogen PV4085); GST; purchased Invitrogen PV4085
Procedure, shortened: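 GST-tagged full-length human FAK, added at 50 nM to compound and a peptide (40 μM)/ATP (200 μM) solution, stated before mixing. Omnia peptide phosphorylation followed continuously by fluorescence increase. Duplicate points; IC50 by nonlinear fitting of linear progress-curve slopes.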

FAK = target: T2, FAK (Homo sapiens, UniProt Q05397); assay: Cell-based capture ELISA for inhibition of FAK autophosphorylation [pY397] in U87MG cells
T2 construct: endogenous in cells; host or cells: U87MG glioblastoma cells (ATCC HTB-14)
Procedure, shortened: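 U87MG cells on fibronectin-coated plates treated with compounds for 2 h at 37° C in complete growth medium (0.6% DMSO final). Lysates captured on anti-FAK ELISA plates; pY397 detected with phospho-specific antibody, HRP and chromogen at 450 nm. Variant run with 50% (v/v) mouse or human plasma.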

[3] = from CCC[CH2][Sn]([CH2]CCC)([CH2]CCC)[c]1cn(CCCOP(=O)(Cc2ccc(Nc3ncc(C(F)(F)F)c(Nc4ccc(Br)nc4C(=O)NC)n3)c(OC)c2)OCC)nn1, cc_pd bond, 2 steps
[4] = from CCC[CH2][Sn]([CH2]CCC)([CH2]CCC)[c]1cn(CCCOP(=O)(CCC)Cc2ccc(Nc3ncc(C(F)(F)F)c(Nc4ccc(Br)nc4C(=O)NC)n3)c(OC)c2)nn1, cc_pd bond
[5] = 50% (v/v) human plasma, mean IC50, read-out: FAK Activity Mechanistic (U87MG) HP
[6] = 50% (v/v) mouse plasma, mean IC50, read-out: FAK Activity Mechanistic (U87MG) MP
[7] = no plasma present, mean IC50, read-out: FAK Activity Mechanistic (U87MG) NP
[8] = mean IC50, [ATP] = 50uM, read-out: FAK Activity Biochemical OMNIA, [ATP] = 50uM

T1 sequence (Q05397 whole entry): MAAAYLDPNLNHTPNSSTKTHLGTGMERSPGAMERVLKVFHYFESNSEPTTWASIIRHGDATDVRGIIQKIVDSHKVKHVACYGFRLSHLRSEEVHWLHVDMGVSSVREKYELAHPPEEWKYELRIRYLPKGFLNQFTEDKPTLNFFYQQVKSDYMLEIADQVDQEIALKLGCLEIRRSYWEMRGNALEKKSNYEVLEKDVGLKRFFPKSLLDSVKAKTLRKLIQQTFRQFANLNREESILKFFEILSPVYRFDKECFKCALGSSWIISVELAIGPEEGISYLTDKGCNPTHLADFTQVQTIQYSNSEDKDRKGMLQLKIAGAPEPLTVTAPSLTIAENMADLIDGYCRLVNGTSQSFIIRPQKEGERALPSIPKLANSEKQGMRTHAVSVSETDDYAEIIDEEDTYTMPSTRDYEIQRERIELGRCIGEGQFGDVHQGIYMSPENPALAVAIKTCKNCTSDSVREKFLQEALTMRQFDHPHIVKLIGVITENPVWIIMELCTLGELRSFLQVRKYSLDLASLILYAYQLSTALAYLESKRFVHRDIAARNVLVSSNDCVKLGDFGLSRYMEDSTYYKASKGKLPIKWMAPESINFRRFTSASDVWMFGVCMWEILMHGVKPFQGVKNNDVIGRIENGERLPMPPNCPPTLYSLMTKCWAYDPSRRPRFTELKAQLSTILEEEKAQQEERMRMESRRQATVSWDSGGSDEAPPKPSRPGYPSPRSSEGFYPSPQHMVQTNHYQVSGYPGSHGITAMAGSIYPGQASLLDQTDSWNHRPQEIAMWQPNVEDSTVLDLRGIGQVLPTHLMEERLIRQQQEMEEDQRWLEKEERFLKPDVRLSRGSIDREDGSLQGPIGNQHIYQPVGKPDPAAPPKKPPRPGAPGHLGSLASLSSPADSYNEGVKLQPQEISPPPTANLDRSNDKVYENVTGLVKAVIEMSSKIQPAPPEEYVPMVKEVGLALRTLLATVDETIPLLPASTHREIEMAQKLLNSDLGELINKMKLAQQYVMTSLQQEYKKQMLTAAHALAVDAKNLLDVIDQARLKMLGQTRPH
T2 sequence (Q05397 whole entry): as above

IC50 (FAK; [6]) [nM] | IC50 [2, 8] [nM] | Compound | IC50 [2] [nM] | IC50 (FAK; [5]) [nM] | IC50 (FAK; [7]) [nM] | also measured
– | – | CCO[P@@]1(=O)Cc2ccc(c(OC)c2)Nc2ncc(C(F)(F)F)c(n2)Nc2ccc(c3c2C(=O)N(C)C3)-c2cnn(c2)CCCO1 | – | – | – | ring closure, yield of all isomers (from CCOP(=O)(O)Cc1ccc(Nc2ncc(C(F)(F)F)c(Nc3ccc(-c4cnn(CCCO)c4)c4c3C(=O)N(C)C4)n2)c(OC)c1, ester bond, PyBOP/DIPEA, 1,2-dichloroethane, 1.17 mM, 72.0 h): 14.1%
– | – | CCO[P@@]1(=O)Cc2ccc(c(OC)c2)Nc2ncc(C(F)(F)F)c(n2)Nc2ccc(nc2C(=O)NC)-c2cn(nn2)CCCO1 | – | – | – | ring closure, isolated yield [1, 3]: 24%
– | – | CCC[P@@]1(=O)Cc2ccc(c(OC)c2)Nc2ncc(C(F)(F)F)c(n2)Nc2ccc(nc2C(=O)NC)-c2cn(nn2)CCCO1 (mixture of isomers) | – | – | – | ring closure, isolated yield [1, 4]: 19%
– | – | CCC[P@]1(=O)Cc2ccc(c(OC)c2)Nc2ncc(C(F)(F)F)c(n2)Nc2ccc(nc2C(=O)NC)-c2cnn(c2)CCCO1 (mixture of isomers) | – | – | – | ring closure, isolated yield ([1]; from CCCP(=O)(O)Cc1ccc(Nc2ncc(C(F)(F)F)c(Nc3ccc(-c4cnn(CCCO)c4)nc3C(=O)NC)n2)c(OC)c1, ester bond, DCC, 2 steps): 55%
– | – | CCO[P@]1(=O)Cc2ccc(c(OC)c2)Nc2ncc(C(F)(F)F)c(n2)Nc2ccc(nc2C(=O)NC)-c2cc(C(=O)OC)n(c2)CCCO1 (mixture of isomers) | – | – | – | ring closure, isolated yield ([1]; from CCOP(=O)(O)Cc1ccc(Nc2ncc(C(F)(F)F)c(Nc3ccc(-c4cc(C(=O)OC)n(CCCO)c4)nc3C(=O)NC)n2)c(OC)c1, ester bond, PyBOP/DIEA, DCE, 1.53 mM, 25.0 °C): 58%
– | – | CCCP1(=O)Cc2ccc(c(OC)c2)Nc2ncc(C(F)(F)F)c(n2)Nc2ccc(nc2C(=O)NC)-c2cn(nn2)CCCO1 (racemic) | – | – | – | ring closure, yield of all isomers [4]: 19%
– | – | CCCP1(=O)Cc2ccc(c(OC)c2)Nc2ncc(C(F)(F)F)c(n2)Nc2ccc(nc2C(=O)NC)-c2cnn(c2)CCCO1 (racemic) | – | – | – | ring closure, yield of all isomers (from CCCP(=O)(O)Cc1ccc(Nc2ncc(C(F)(F)F)c(Nc3ccc(-c4cnn(CCCO)c4)nc3C(=O)NC)n2)c(OC)c1, ester bond, DCC, pyridine, 15.0 mM, 115.0 °C, 5.5 h, 2 steps): 55%
– | – | CCOP1(=O)Cc2ccc(c(OC)c2)Nc2ncc(C(F)(F)F)c(n2)Nc2ccc(cc2C(=O)N(CC)CC)-c2cnn(c2)CCCO1 (racemic) | – | – | – | ring closure, yield of all isomers (from CCOP(=O)(O)Cc1ccc(Nc2ncc(C(F)(F)F)c(Nc3ccc(-c4cnn(CCCO)c4)cc3C(=O)N(CC)CC)n2)c(OC)c1, ester bond, PyBOP/DIPEA, 1,2-dichloroethane, 1.03 mM, 25.0 °C, 24.0 h): 43%
– | – | CCOP1(=O)Cc2ccc(c(OC)c2)Nc2ncc(C(F)(F)F)c(n2)Nc2ccc(nc2C(=O)NC)-c2cnn(c2)CC2(COC2)CO1 (racemic) | – | – | – | ring closure, yield of all isomers (from CCOP(=O)(Cc1ccc(Nc2ncc(C(F)(F)F)c(Nc3ccc(Br)nc3C(=O)NC)n2)c(OC)c1)OCC1(Cn2cc(B3OC(C)(C)C(C)(C)O3)cn2)COC1, cc_pd bond, Pd(dppf)Cl2·CH2Cl2, K2CO3, 1,4-dioxane, 13.5 mM, 100.0 °C, 0.5 h): 43%
– | – | CCOP1(=O)Cc2ccc(c(OC)c2Cl)Nc2ncc(C(F)(F)F)c(n2)Nc2ccc(nc2C(=O)NC)-c2cnn(c2)CCCO1 (single isomer, unassigned) [Example 54A] | < 400 | > 4000 | 400 to 4000 | –
– | – | CCOP1(=O)Cc2ccc(c(Cl)c2)Nc2ncc(C(F)(F)F)c(n2)Nc2ccc(nc2C(=O)NC)-c2cnn(c2)CC2(COC2)CO1 (single isomer, unassigned) [Example 58A] | < 400 | 400 to 4000 | < 400 | –
– | – | CCOP1(=O)Cc2ccc(c(OC)c2)Nc2ncc(C(F)(F)F)c(n2)Nc2ccc(nc2C(=O)NC)-c2cnn(c2)CC(F)(F)CO1 (single isomer, unassigned) [Example 59A] | – | 400 to 4000 | < 400 | IC50 ([2]; read-out: FAK Activity Biochemical OMNIA, [ATP] = 50uM, mean IC50, [ATP] = 50uM): < 400 nM
– | – | CCOP1(=O)Cc2ccc(c(OC)c2)Nc2ncc(C(F)(F)F)c(n2)Nc2ccc(nc2C(=O)NC)-c2cnn(c2)CC(F)(F)CO1 (single isomer, unassigned) [Example 59B] | < 400 | 400 to 4000 | 400 to 4000 | –
– | – | CCOP1(=O)Cc2ccc(c(OC)c2)Nc2ncc(C(F)(F)F)c(n2)Nc2ccc(nc2C(=O)NC)-c2cn(nc2C)CC2(COC2)CO1 (single isomer, unassigned) [Example 60A] | < 400 | < 400 | < 400 | –
< 400 | < 400 | CNC(=O)c1nc2ccc1Nc1nc(ncc1C(F)(F)F)Nc1ccc(cc1OC)CP(C)(=O)OCCCn1cc-2cn1 (single isomer, unassigned) [Example 61A] | – | < 400 | < 400 | –
400 to 4000 | < 400 | CCP1(=O)Cc2ccc(c(OC)c2)Nc2ncc(C(F)(F)F)c(n2)Nc2ccc(nc2C(=O)NC)-c2cnn(c2)CCCO1 (single isomer, unassigned) [Example 67A] | – | 400 to 4000 | < 400 | –
400 to 4000 | < 400 | CNC(=O)c1nc2ccc1Nc1nc(ncc1C(F)(F)F)Nc1ccc(cc1OC)CP(=O)(C(C)C)OCCCn1cc-2cn1 (single isomer, unassigned) [Example 68A] | – | 400 to 4000 | < 400 | –
< 400 | < 400 | CNC(=O)c1nc2ccc1Nc1nc(ncc1C(F)(F)F)Nc1ccc(cc1OC)CP(=O)(C(C)C)OCCCn1cc-2cn1 (single isomer, unassigned) [Example 68B] | – | < 400 | < 400 | –
– | – | CCOP1(=O)Cc2ccc(cc2)Nc2ncc(C(F)(F)F)c(n2)Nc2ccc(nc2C(=O)NC)-c2cnn(c2)CCCCO1 (centres unmarked) [Example 16, 11-ethoxy-N-methyl-21-(trifluoromethyl)-10-oxa-4,5,17,19,23,26,29-heptaaza-11-phosphapentacyclo[22.2.2.2^13,16.1^2,5.1^18,22]dotriaconta-1(26),2(32),3,13,15,18(29),19,21,24,27,30-undecaene-25-carboxamide 11-oxide] | < 400 | < 400 | < 400 | –
> 4000 | < 400 | CNC(=O)c1nc2ccc1Nc1nc(ncc1C(F)(F)F)Nc1ccc(cc1OC)CP(=O)(O)OCCCn1cc-2cn1 [Example 65, 10-hydroxy-14-methoxy-N-methyl-20-(trifluoromethyl)-9-oxa-4,5,16,18,22,25,28-heptaaza-10-phosphapentacyclo[21.2.2.2^12,15.1^2,5.1^17,21]hentriaconta-1(25),2(31),3,12,14,17(28),18,20,23,26,29-undecaene-24-carboxamide 10-oxide] | – | > 4000 | > 4000 | –

Compound | IC50 (FAK; [6]) [nM] | IC50 [2, 8] [nM] | IC50 [2] [nM] | IC50 (FAK; [5]) [nM] | IC50 (FAK; [7]) [nM] | also measured
CCOP1(=O)Cc2ccc(c(OC)c2)Nc2ncc(C(F)(F)F)c(n2)Nc2ccc(nc2C(=O)NC)-c2cc(C(=O)OC)n(c2)CCCO1 (racemic) [Example 38] | 400 to 4000 | – | < 400 | < 400 | < 400 | ring closure, yield of all isomers (from CCOP(=O)(O)Cc1ccc(Nc2ncc(C(F)(F)F)c(Nc3ccc(-c4cc(C(=O)OC)n(CCCO)c4)nc3C(=O)NC)n2)c(OC)c1, ester bond, PyBOP/DIPEA, 1,2-dichloroethane, 1.53 mM, 25.0 °C, 24.0 h): 58%
CCOP1(=O)Cc2ccc(c(OC)c2)Nc2ncc(C(F)(F)F)c(n2)Nc2ccc(nc2C(=O)NC)-c2cn(nc2Cl)CCCO1 (single isomer, unassigned) [Example 49A] | 400 to 4000 | < 400 | – | > 4000 | < 400 | –
CCOP1(=O)Cc2ccc(c(OC)c2)Nc2ncc(C(F)(F)F)c(n2)Nc2ccc(nc2C(=O)NC)-c2cnn(c2)C(C)(C)CCO1 (single isomer, unassigned) [Example 50A] | – | < 400 | – | 400 to 4000 | < 400 | –
CCOP1(=O)Cc2cc(OC)c(cc2Cl)Nc2ncc(C(F)(F)F)c(n2)Nc2ccc(nc2C(=O)NC)-c2cnn(c2)CCCO1 (single isomer, unassigned) [Example 56A] | 400 to 4000 | – | < 400 | > 4000 | < 400 | –
CCOP1(=O)Cc2cc(OC)c(cc2Cl)Nc2ncc(C(F)(F)F)c(n2)Nc2ccc(nc2C(=O)NC)-c2cnn(c2)CC2(COC2)CO1 (single isomer, unassigned) [Example 57A] | 400 to 4000 | – | < 400 | > 4000 | < 400 | –
CCOP1(=O)Cc2ccc(c(OC)c2)Nc2ncc(C(F)(F)F)c(n2)Nc2ccc(nc2C(=O)NC)-c2cn(nn2)CCCO1 (single isomer, unassigned) [Example 64A] | – | < 400 | – | < 400 | < 400 | ring closure, yield of all isomers [3]: 24%
